Experimental data: patent US9200051B2, “Peptide compound” (TAKEDA PHARMACEUTICAL COMPANY LIMITED, priority 2013, dated 2015)
Read-outs that look alike come from different tables or passages of the source. Square brackets hold non-standard residues; d marks the D form. Peptide text beside a SMILES is read from it. * marks the point of attachment. Cyclopropanecarbonyl = O=C(C1CC1)*; αMeF = C[C@](N)(Cc1ccccc1)C(=O)O; Aib = CC(C)(N)C(=O)O

Key:
Format in all cases: cell-based
human GIPR = biological target: T1, human GIPR (Homo sapiens, UniProt P48546); assay: Agonist activity against human GIPR, CRE-luciferase reporter assay (rise in intracellular cAMP) in hGIPR/CRE-LUC/CHO-K1 cells
T1 construct: expressed in transfected cells; host or cells: CHO-K1 (CRE-LUC/CHO-K1), plasmid hGIPR/pMSRα-neo
T1 sequence (P48546 22-466): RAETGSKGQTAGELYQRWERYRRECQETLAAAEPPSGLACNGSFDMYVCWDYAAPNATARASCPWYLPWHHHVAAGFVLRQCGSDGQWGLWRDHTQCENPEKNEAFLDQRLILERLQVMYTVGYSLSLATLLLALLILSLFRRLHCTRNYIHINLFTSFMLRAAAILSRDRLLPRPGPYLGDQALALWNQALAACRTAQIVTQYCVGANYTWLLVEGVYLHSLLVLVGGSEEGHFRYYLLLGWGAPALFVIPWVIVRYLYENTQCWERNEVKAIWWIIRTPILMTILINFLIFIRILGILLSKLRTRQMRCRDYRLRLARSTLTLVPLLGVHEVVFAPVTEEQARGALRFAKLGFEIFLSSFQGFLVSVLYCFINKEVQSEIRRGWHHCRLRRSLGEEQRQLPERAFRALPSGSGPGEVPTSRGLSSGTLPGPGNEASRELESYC
Excerpt: (§1) Evaluation of agonist activity against human GIPR, human GLP-1R and human glucagon R using rise in intracellular cAMP concentration as index
The human GIPR gene having a sequence identical to the sequence of GenBank Accession No. U39231 was cloned into pMSRα-neo vector to prepare hGIPR/pMSRα-neo.
(§2) The luciferase reporter gene having an upstream cAMP response sequence was introduced to CHO-K1 cells to construct CRE-LUC/CHO-K1 cells.
The plasmid hGIPR/pMSRα-neo obtained in (1) was introduced to the CRE-LUC/CHO-K1 cells obtained in (2) to obtain transformants. Next, a cell line induced to express luciferase, i.e., hGIPR/CRE-LUC/CHO-K1 cells, were selected from the obtained transformants by the addition of GIP.
(§3) The hGIPR/CRE-LUC/CHO-K1 cells were inoculated at a cell density of 25 μL/well (5×10^4 cells/well) to a 384-well white plate (Corning), and cultured overnight in Ham F12 medium containing 10% fetal bovine serum, 100 U/mL penicillin and 100 μg/mL streptomycin in a CO2 incubator of 37° C. A medium containing a test compound was added at a concentration of 5 μL/well to the cells, and the resultant cells were incubated for 4 hours in a CO2 incubator of 37° C. to give the final concentration of 1 μM. PicaGene LT7.5 (Toyo Ink Co., Ltd.) was added thereto at a concentration of 30 μL/well, and the mixture was shaken with light shielded. After 30 minutes, the luciferase activity was measured using a plate reader Envision (PerkinElmer). The luciferase activity in the presence of 10 nM GIP was defined as 100%, and the luciferase activity from the addition of DMSO instead of the test compound was defined as 0%. The GIPR agonist activity was calculated with a rise in intracellular cAMP concentration as an index.

human GLP-1R = biological target: T2, human GLP-1R (Homo sapiens, UniProt P43220); assay: Agonist activity against human GLP-1R, CRE-luciferase reporter assay in hGLP-1R/CRE-luc/CHO-K1 cells
T2 construct: expressed in transfected cells; host or cells: CHO-K1, plasmids hGLP-1/pIRESneo3 and Cre-luc(Zeo)
T2 sequence (P43220 24-463): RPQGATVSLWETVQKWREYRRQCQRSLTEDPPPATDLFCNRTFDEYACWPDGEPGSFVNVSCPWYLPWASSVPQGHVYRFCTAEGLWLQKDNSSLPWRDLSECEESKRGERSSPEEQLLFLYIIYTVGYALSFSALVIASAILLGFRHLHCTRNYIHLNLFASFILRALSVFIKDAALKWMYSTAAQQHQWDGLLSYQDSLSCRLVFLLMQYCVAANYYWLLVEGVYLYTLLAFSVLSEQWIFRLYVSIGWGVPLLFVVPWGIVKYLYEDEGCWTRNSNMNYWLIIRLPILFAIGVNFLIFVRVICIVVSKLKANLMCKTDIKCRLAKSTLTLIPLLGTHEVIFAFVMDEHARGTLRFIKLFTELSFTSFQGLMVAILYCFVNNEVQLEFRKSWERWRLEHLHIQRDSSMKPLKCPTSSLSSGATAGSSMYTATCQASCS
Excerpt: as §1
Four copies of the cAMP response sequence and the Zeocin resistance gene were introduced to pGL3(R2.2)-Basic Vector (Promega) to construct Cre-luc(Zeo) reporter plasmid.
The human GLP-1R gene having a sequence identical to the sequence of GenBank Accession No. NM_002062 was cloned into pIRESneo3 vector to prepare hGLP-1/pIRESneo3.
The Cre-luc(Zeo) obtained in (3) and the plasmid hGLP-1/pIRESneo3 obtained in (5) were introduced to CHO-K1 cells to obtain transformants. Next, a cell line induced to express luciferase, i.e., hGLP-1R/CRE-luc/CHO-K1 cells, were selected from the obtained transformants by the addition of GLP-1.
as §3
The GLP-1R agonist activity was assayed in the same way as above using the hGLP-1R/CRE-luc/CHO-K1 cells. The luciferase activity in the presence of 10 nM GLP-1 was defined as 100%, and the luciferase activity from the addition of DMSO instead of the test compound was defined as 0%. The GLP-1R agonist activity was calculated with a rise in intracellular cAMP concentration as an index.

human glucagon R = biological target: T3, human glucagon R (Homo sapiens, UniProt P47871); assay: Agonist activity against human glucagon R, CRE-luciferase reporter assay in hGlucagonR/CRE-LUC/CHO-K1 cells
T3 construct: expressed in transfected cells; host or cells: CHO-K1 (CRE-LUC/CHO-K1), plasmid hGlucagonR/pMSRα-neo
T3 sequence (P47871 26-477): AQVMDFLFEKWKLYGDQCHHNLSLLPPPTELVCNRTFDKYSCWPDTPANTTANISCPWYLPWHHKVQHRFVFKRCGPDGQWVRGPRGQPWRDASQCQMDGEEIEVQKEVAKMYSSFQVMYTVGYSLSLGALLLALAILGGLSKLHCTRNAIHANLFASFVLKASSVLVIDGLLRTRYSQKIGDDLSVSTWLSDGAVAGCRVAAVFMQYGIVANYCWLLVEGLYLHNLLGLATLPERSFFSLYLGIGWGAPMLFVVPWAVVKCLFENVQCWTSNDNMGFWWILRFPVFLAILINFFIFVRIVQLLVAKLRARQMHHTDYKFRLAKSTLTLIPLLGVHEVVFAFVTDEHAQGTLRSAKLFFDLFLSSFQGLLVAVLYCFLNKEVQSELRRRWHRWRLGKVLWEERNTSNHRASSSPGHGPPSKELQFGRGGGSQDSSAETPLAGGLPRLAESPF
Excerpt: as §1, §2
The human glucagon R gene having a sequence identical to the sequence of GenBank Accession No. NM_000160 was cloned into pMSRα-neo vector to prepare hGlucagonR/pMSRα-neo.
The plasmid hGlucagonR/pMSRα-neo obtained in (7) was introduced to the CRE-LUC/CHO-K1 cells obtained in (2) to obtain transformants. Next, a cell line induced to express luciferase, i.e., hGlucagonR/CRE-LUC/CHO-K1 cells, were selected from the obtained transformants by the addition of glucagon.
as §3
The glucagon R agonist activity was assayed in the same way as above using the hGlucagonR/CRE-LUC/CHO-K1 cells. The luciferase activity in the presence of 10 nM glucagon was defined as 100%, and the luciferase activity from the addition of DMSO instead of the test compound was defined as 0%. The glucagon agonist activity was calculated with a rise in intracellular cAMP concentration as an index.

| Compound | EC50 (human GIPR) [nM] | EC50 (human GLP-1R) [nM] | EC50 (human glucagon R) [nM] | EC50 (human GIPR; hGIPR/CRE-LUC/CHO-K1 cells, 4 hours incubation, 10 nM GIP = 100%, read-out: Agonist activity (EC50) hGIPR) [nM] | EC50 (human GLP-1R; hGLP-1R/CRE-luc/CHO-K1 cells, 4 hours incubation, 10 nM GLP-1 = 100%, read-out: Agonist activity (EC50) hGLP-1R) [nM] | EC50 (human glucagon R; hGlucagonR/CRE-LUC/CHO-K1 cells, 4 hours incubation, 10 nM glucagon = 100%, read-out: Agonist activity (EC50) hGCGR) [nM] |
| --- | --- | --- | --- | --- | --- | --- |
| CC[C@H](C)[C@H](NC(=O)C(C)(C)NC(=O)[C@H](Cc1ccc(O)cc1)NC(=O)[C@H](CC(=O)O)NC(=O)[C@H](CO)NC(=O)[C@@H](NC(=O)[C@](C)(Cc1ccccc1)NC(=O)[C@@H](NC(=O)CNC(=O)[C@H](CCC(=O)O)NC(=O)C(C)(C)NC(=O)[C@@H](N)Cc1ccc(O)cc1)[C@@H](C)O)[C@@H](C)O)C(=O)N[C@@](C)(Cc1ccccc1)C(=O)N[C@@H](CC(C)C)C(=O)N[C@@H](CC(=O)O)C(=O)N[C@@H](CCCCN)C(=O)N[C@@H](CCC(N)=O)C(=O)N[C@@H](C)C(=O)N[C@@H](CCC(N)=O)C(=O)N[C@@H](C)C(=O)N[C@@H](CCC(=O)O)C(=O)N[C@@H](Cc1ccccc1)C(=O)N[C@H](C(=O)N[C@@H](CCCCN)C(=O)N[C@@H](Cc1c[nH]c2ccccc12)C(=O)N[C@@H](CC(C)C)C(=O)N[C@@H](CC(C)C)C(=O)N[C@@H](CCCCN)C(=O)NCC(=O)NCC(=O)N1CCC[C@H]1C(=O)N[C@@H](CO)C(=O)N[C@@H](CO)C(=O)NCC(=O)N[C@@H](C)C(=O)N1CCC[C@H]1C(=O)N1CCC[C@H]1C(=O)N1CCC[C@H]1C(=O)N[C@@H](CO)C(=O)N[C@@H](CCCCN)C(N)=O)C(C)C [Example 13] (H-Y[Aib]EGT[αMeF]TSDY[Aib]I[αMeF]LDKQAQAEFVKWLLKGGPSSGAPPPSK-NH2) | 0.0072 | 0.011 | > 1000 |  |  |  |
| CC(C)C[C@H](NC(=O)[C@H](CC(C)C)NC(=O)[C@H](Cc1c[nH]c2ccccc12)NC(=O)[C@H](CCCCN)NC(=O)[C@@H](NC(=O)[C@H](Cc1ccccc1)NC(=O)[C@H](CCC(=O)O)NC(=O)[C@H](C)NC(=O)[C@H](CCC(N)=O)NC(=O)[C@H](C)NC(=O)[C@H](CCC(N)=O)NC(=O)[C@H](CCCCN)NC(=O)[C@H](CC(=O)O)NC(=O)[C@H](CC(C)C)NC(=O)C(C)(C)NC(=O)[C@H](C)NC(=O)C(C)(C)NC(=O)[C@H](Cc1ccc(O)cc1)NC(=O)[C@H](CC(=O)O)NC(=O)[C@H](CO)NC(=O)[C@@H](NC(=O)[C@](C)(Cc1ccccc1)NC(=O)[C@@H](NC(=O)CNC(=O)[C@H](CCC(=O)O)NC(=O)C(C)(C)NC(=O)[C@@H](N)Cc1ccc(O)cc1)[C@@H](C)O)[C@@H](C)O)C(C)C)C(=O)N[C@@H](CCCCN)C(=O)NCC(=O)NCC(=O)N1CCC[C@H]1C(=O)N[C@@H](CO)C(=O)N[C@@H](CO)C(=O)NCC(=O)N[C@@H](C)C(=O)N1CCC[C@H]1C(=O)N1CCC[C@H]1C(=O)N1CCC[C@H]1C(=O)N[C@@H](CO)C(=O)N[C@@H](CCCCN)C(N)=O [Example 10] (H-Y[Aib]EGT[αMeF]TSDY[Aib]A[Aib]LDKQAQAEFVKWLLKGGPSSGAPPPSK-NH2) | 0.0054 | 0.0083 | > 1000 |  |  |  |
| CC[C@H](C)[C@H](NC(=O)C(C)(C)NC(=O)[C@H](Cc1ccc(O)cc1)NC(=O)[C@H](CC(=O)O)NC(=O)[C@H](CO)NC(=O)[C@@H](NC(=O)[C@](C)(Cc1ccccc1)NC(=O)[C@@H](NC(=O)CNC(=O)[C@H](CCC(=O)O)NC(=O)C(C)(C)NC(=O)[C@@H](N)Cc1ccc(O)cc1)[C@@H](C)O)[C@@H](C)O)C(=O)NC(C)(C)C(=O)N[C@@H](CC(C)C)C(=O)N[C@@H](CC(=O)O)C(=O)N[C@@H](CCCCN)C(=O)N[C@@H](CCC(N)=O)C(=O)N[C@@H](C)C(=O)N[C@@H](CCC(N)=O)C(=O)N[C@@H](CO)C(=O)N[C@@H](CCC(=O)O)C(=O)N[C@@H](Cc1ccccc1)C(=O)N[C@H](C(=O)N[C@@H](CCCCN)C(=O)N[C@@H](Cc1c[nH]c2ccccc12)C(=O)N[C@@H](CC(C)C)C(=O)N[C@@H](CC(C)C)C(=O)N[C@@H](CCCCN)C(=O)NCC(=O)NCC(=O)N1CCC[C@H]1C(=O)N[C@@H](CO)C(=O)N[C@@H](CO)C(=O)NCC(=O)N[C@@H](C)C(=O)N1CCC[C@H]1C(=O)N1CCC[C@H]1C(=O)N1CCC[C@H]1C(=O)N[C@@H](CO)C(=O)N[C@@H](CCCCN)C(N)=O)C(C)C [Example 4] (H-Y[Aib]EGT[αMeF]TSDY[Aib]I[Aib]LDKQAQSEFVKWLLKGGPSSGAPPPSK-NH2) | 0.0049 | 0.0099 | > 1000 |  |  |  |
| CC[C@H](C)[C@H](NC(=O)C(C)(C)NC(=O)[C@H](Cc1ccc(O)cc1)NC(=O)[C@H](CC(=O)O)NC(=O)[C@H](CO)NC(=O)[C@@H](NC(=O)[C@](C)(Cc1ccccc1)NC(=O)[C@@H](NC(=O)CNC(=O)[C@H](CCC(=O)O)NC(=O)C(C)(C)NC(=O)[C@H](Cc1ccc(O)cc1)NC(=O)C1CC1)[C@@H](C)O)[C@@H](C)O)C(=O)NC(C)(C)C(=O)N[C@@H](CC(C)C)C(=O)N[C@@H](CC(=O)O)C(=O)N[C@@H](CCCCN)C(=O)N[C@@H](CCC(N)=O)C(=O)N[C@@H](C)C(=O)N[C@@H](CCC(N)=O)C(=O)N[C@@H](C)C(=O)N[C@@H](CCC(=O)O)C(=O)N[C@@H](Cc1ccccc1)C(=O)N[C@H](C(=O)N[C@@H](CCCCN)C(=O)N[C@@H](Cc1c[nH]c2ccccc12)C(=O)N[C@@H](CC(C)C)C(=O)N[C@@H](CC(C)C)C(=O)N[C@@H](CCCCN)C(=O)NCC(=O)NCC(=O)N1CCC[C@H]1C(=O)N[C@@H](CO)C(=O)N[C@@H](CO)C(=O)NCC(=O)N[C@@H](C)C(=O)N1CCC[C@H]1C(=O)N1CCC[C@H]1C(=O)N1CCC[C@H]1C(=O)N[C@@H](CO)C(=O)N[C@@H](CCCCN)C(N)=O)C(C)C [Example 21] (Cyclopropanecarbonyl-Y[Aib]EGT[αMeF]TSDY[Aib]I[Aib]LDKQAQAEFVKWLLKGGPSSGAPPPSK-NH2) |  |  |  | 0.024 | 0.055 | > 1000 |
